The values below are quoted from earlier work in patent US6458974B1, “Synthesis of β-lapachone and its intermediates” (Cyclis Pharmaceuticals, Inc., priority 2001, dated 2002).

The term IC50 denotes the concentration at which inhibition is half-maximal.

Data set [1] has as its system human cancer cell lines. The conditions noted are these: single agent, concentrations typically in this range, read-out: antineoplastic activity (IC50).
Data set [2] concerns normal fresh or proliferating human PBMC.

For the compound `CC1(C)CCC2=C(O1)c1ccccc1C(=O)C2=O` [β-lapachone, 3,4-dihydro-2,2-dimethyl-2H-naphtho[1,2-b]pyran-5,6-dione], the IC50 in data set [1] was 1 to 10 µM. In addition, the cytotoxic effects entry in data set [2] is on record as “No cytotoxic effects”.
